Assay results published in US7229984B2, “Dibenzoxazepinone derivatives and uses thereof” (Roche Palo Alto LLC, priority 2004, dated 2007).
Structures can show the parent of a compound that is named as a salt.

Columns and labels:
[1] = target: T1, recombinant human 5-HT6 receptor (Homo sapiens, UniProt P50406); assay: Radioligand binding, [3H]LSD competition in HEK293 cell membranes; conditions: [3H]LSD displacement, pH 7.4, 37° C., approximate value, read-out: pKi for 5-HT6 (converted)
T1 construct: expressed in transfected cells; membranes
T1 sequence (P50406 whole entry): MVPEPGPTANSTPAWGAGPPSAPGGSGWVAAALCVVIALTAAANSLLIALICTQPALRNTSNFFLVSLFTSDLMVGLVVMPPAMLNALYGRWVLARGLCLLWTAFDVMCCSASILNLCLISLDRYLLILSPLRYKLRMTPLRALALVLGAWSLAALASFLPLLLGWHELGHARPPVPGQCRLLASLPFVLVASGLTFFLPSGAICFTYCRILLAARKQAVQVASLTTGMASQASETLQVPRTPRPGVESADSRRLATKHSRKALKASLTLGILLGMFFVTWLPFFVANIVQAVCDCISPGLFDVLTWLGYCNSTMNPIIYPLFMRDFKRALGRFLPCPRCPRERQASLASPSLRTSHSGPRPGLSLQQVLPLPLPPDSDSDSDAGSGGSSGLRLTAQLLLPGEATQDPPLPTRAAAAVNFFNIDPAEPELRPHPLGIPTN
Description: (§1) The binding activity of compounds of this invention in vitro was determined as follows. Duplicate determinations of 5-HT6 ligand affinity were made by competing for binding of [^3H]LSD in cell membranes derived from HEK293 cells stably expressing recombinant human 5-HT6 receptor. Duplicate determinations of 5-HT2A ligand affinity were made by competing for binding of [^3H]Ketanserin (3-(2-(4-(4-fluorobenzoyl)piperidinol)ethyl)-2,4(1H,3H)-quinazolinedione) in cell membranes derived from CHO-K1 cells stably expressing recombinant human 5-HT2A receptor. Membranes were prepared from HEK 293 cell lines by the method described by Monsma et al., Molecular Pharmacology, Vol. 43 pp. 320–327 (1993), and from CHO-K1cell lines as described by Bonhaus et al., Br J Pharmacol. Jun; 115(4):622–8 (1995).
(§2) For estimation of affinity at the 5-HT6 receptor, all determinations were made in assay buffer containing 50 mM Tris-HCl, 10 mM MgSO4, 0.5 mM EDTA, 1 mM ascorbic acid, pH 7.4 at 37° C., in a 250 microliter reaction volume. […]
(§3) Assay tubes containing [^3H] […] Bound[^3H]LSD or [^3H]Ketanserin were determined as radioactive counts per minute using Packard TopCount.
(§4) Displacement of [^3H]LSD or [^3H]Ketanserin from the binding sites was quantified by fitting concentration-binding data to a 4-parameter logistic equation: […]

[2] = target: T2, recombinant human 5-HT2A receptor (Homo sapiens, UniProt P28223); assay: Radioligand binding, [3H]Ketanserin competition in CHO-K1 cell membranes; conditions: [3H]Ketanserin displacement, pH 7.4, 32° C., approximate value, read-out: pKi for 5-HT2A (converted)
T2 construct: expressed in transfected cells; membranes
T2 sequence (P28223 whole entry): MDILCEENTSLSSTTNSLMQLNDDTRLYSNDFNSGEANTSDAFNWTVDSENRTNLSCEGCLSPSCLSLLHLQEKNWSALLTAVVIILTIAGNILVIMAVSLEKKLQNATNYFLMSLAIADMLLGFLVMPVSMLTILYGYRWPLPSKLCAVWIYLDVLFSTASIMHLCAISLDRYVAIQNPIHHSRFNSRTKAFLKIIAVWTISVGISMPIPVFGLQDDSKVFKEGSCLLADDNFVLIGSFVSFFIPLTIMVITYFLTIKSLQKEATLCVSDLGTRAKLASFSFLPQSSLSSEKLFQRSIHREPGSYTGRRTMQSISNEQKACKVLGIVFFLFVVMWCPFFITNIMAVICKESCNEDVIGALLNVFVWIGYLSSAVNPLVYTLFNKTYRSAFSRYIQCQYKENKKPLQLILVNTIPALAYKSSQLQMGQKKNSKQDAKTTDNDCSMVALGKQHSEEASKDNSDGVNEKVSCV
Description: as §1, §2, §3, §4

Row | melting point | SMILES | further results
1 | 322 to 323 °C (dec.) | O=C1c2cccc(N3CCNCC3)c2Nc2ccccc2N1Cc1ccccc1 (as salt: HCl) [Compound 13, 10-Benzyl-4-piperazin-1-yl-5,10-dihydro-dibenzo[b,e][1,4]diazepin-11-one] | –
2 | 98 to 99 °C | O=C1c2cccc(N3CCNCC3)c2Oc2ccccc2N1Cc1c[nH]c2ccccc12 [Compound 37, 10-(1H-Indol-3-ylmethyl)-4-piperazin-1-yl-10H-dibenzo[b,f][1,4]oxazepin-11-one] | –

More lines, now with the values behind:

Row | SMILES | melting point | further results
3 | O=C1c2cccc(N3CCNCC3)c2Oc2ccc(F)cc2N1Cc1cccc(C(F)(F)F)c1 [Compound 28, 8-Fluoro-4-piperazin-1-yl-10-(3-trifluoromethyl-benzyl)-10H-dibenzo[b,f][1,4]oxazepin-11-one] | – | Ki [1]: ~0.282 nM
4 | O=C1c2cccc(N3CCNCC3)c2Oc2ccccc2N1Cc1ccccc1 (as salt: HCl) [Compound 1, 10-Benzyl-4-piperazin-1-yl-10H-dibenzo[b,f][1,4]oxazepin-11-one] | 198 to 199 °C | –
5 | O=C1c2cccc(N3CCNCC3)c2Sc2ccccc2N1Cc1ccccc1 (as salt: HCl) [Compound 20, 10-Benzyl-4-piperazin-1-yl-10H-dibenzo[b,f][1,4]thiazepin-11-one] | 301 to 302 °C | –
6 | O=C1c2cccc(N3CCNCC3)c2Oc2c(F)cccc2N1CCc1ccccc1 [Compound 26, 6-Fluoro-10-phenethyl-4-piperazin-1-yl-10H-dibenzo[b,f][1,4]oxazepin-11-one,hydrochloride] | – | Ki [2]: ~1.32 nM
